Measured values taken from patent US20260317320A1, “C5AR1 ANTAGONISTS AND USES THEREOF” (Vanqua Bio, Inc., priority 2022, published 2026).
Where two headings read alike, the source gives them in different places.

Key:
[1] = target: T1, complement C5a receptor 1 (C5aR1) (Homo sapiens, UniProt P21730); experiment: β-arrestin recruitment via C5aR1 activation in live CHO-K1 cells (PathHunter), antagonist mode; assay type: cell-based; conditions: antagonist mode; recombinant hC5a (EC90) as competing natural agonist; live CHO-K1 cells; read-out: [Antagonist] B-arrestin2 recruitment: Average IC50
T1 construct: β-galactosidase fragment (PathHunter enzyme complementation); host or cells: CHO-K1 (PathHunter CHO-K1 C5aR1 β-arrestin cell line)
T1 sequence (P21730 1-350): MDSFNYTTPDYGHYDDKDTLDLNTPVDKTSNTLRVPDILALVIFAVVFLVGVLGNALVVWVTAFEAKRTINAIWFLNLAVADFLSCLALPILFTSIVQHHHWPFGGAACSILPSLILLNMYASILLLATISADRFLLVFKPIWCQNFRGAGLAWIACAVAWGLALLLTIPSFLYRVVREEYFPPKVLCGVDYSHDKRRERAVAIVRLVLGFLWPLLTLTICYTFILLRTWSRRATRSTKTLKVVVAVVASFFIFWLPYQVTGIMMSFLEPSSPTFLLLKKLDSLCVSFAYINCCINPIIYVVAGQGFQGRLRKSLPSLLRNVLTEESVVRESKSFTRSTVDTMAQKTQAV
In short: (§1)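 Live CHO-K1 cells expressing β-galactosidase fragments fused to β-arrestin and C5aR1; recruitment is read by fragment complementation. In agonist mode compounds are tested alone; in antagonist mode they compete against recombinant hC5a at EC90. IC50 reported in binned ranges.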

[2] = target: T1, complement C5a receptor 1 (C5aR1); experiment: β-arrestin recruitment via C5aR1 activation in live CHO-K1 cells (PathHunter), agonist mode; assay type: cell-based
In short: as §1

Row | Structure (SMILES) | IC50 [1] [nM] | [Agonist] B-arrestin2 recruitment: Average EC50 (nM) [2] | [Agonist] B-arrestin2 recruitment: Average EC50 (nM) ([2]; at 10 μM)
1 | Cc1cnc2cc([C@H]3CC[C@H](c4cnsc4C)CC3)c(=O)n(Cc3nccnc3C(F)(F)F)c2n1 [compound 242, 3-Methyl-7-((1r,4r)-4-(5-methylisothiazol-4-yl)cyclohexyl)-5-((3-(trifluoromethyl)pyrazin-2-yl)methyl)pyrido[2,3-b]pyrazin-6(5H)-one] | < 500 | Non-Active | –
2 | Cc1ccc2cc([C@H]3CC[C@H](c4ccccc4C(F)(F)F)CC3)c(=O)n(Cc3ncccc3OC(F)(F)F)c2n1 [compound 244, 7-Methyl-1-((3-(trifluoromethoxy)pyridin-2-yl)methyl)-3-((1r,4r)-4-(2-(trifluoromethyl)phenyl)cyclohexyl)-1,8-naphthyridin-2(1H)-one] | < 500 | Non-Active | –
3 | Cc1ccc2cc([C@H]3CC[C@H](c4cnccc4C(F)(F)F)CC3)c(=O)n(Cc3ncccc3OC(F)(F)F)c2n1 [compound 247, 7-Methyl-1-((3-(trifluoromethoxy)pyridin-2-yl)methyl)-3-((1r,4r)-4-(4-(trifluoromethyl)pyridin-3-yl)cyclohexyl)-1,8-naphthyridin-2(1H)-one] | < 500 | – | Non-Active at 10 μM
4 | Cc1ccc2cc([C@H]3CC[C@H](c4cnccc4C(F)(F)F)CC3)c(=O)n(Cc3ncccc3C3CC3)c2n1 [compound 248, 1-((3-Cyclopropylpyridin-2-yl)methyl)-7-methyl-3-((1r,4r)-4-(4-(trifluoromethyl)pyridin-3-yl)cyclohexyl)-1,8-naphthyridin-2(1H)-one] | < 500 | – | Non-Active at 10 μM
5 | Cc1ccc2cc([C@H]3CC[C@H](c4cnccc4C(F)(F)F)CC3)c(=O)n(Cc3ncccc3C(F)(F)F)c2n1 [compound 251, 7-Methyl-1-((3-(trifluoromethyl)pyridin-2-yl)methyl)-3-((1r,4r)-4-(4-(trifluoromethyl)pyridin-3-yl)cyclohexyl)-1,8-naphthyridin-2(1H)-one] | < 500 | – | Non-Active at 10 μM
6 | COc1nccc(C)c1[C@H]1CC[C@H](c2cc3ccc(C)nc3n(Cc3ncccc3C3CC3)c2=O)CC1 [compound 252, 1-((3-Cyclopropylpyridin-2-yl)methyl)-3-((1r,4r)-4-(2-methoxy-4-methylpyridin-3-yl)cyclohexyl)-7-methyl-1,8-naphthyridin-2(1H)-one] | < 500 | – | Non-Active at 10 μM
7 | COc1nccc(C)c1[C@H]1CC[C@H](c2cc3ccc(C)nc3n(Cc3ncccc3CC(F)(F)F)c2=O)CC1 [compound 260, 7-Methyl-3-[(1r,4r)-4-(2-methoxy-4-methyl-3-pyridyl)cyclohexyl]-1-{[3-(2,2,2-trifluoroethyl)-2-pyridyl]methyl}-1,8-diaza-2(1H)-naphthalenone] | < 500 | Non-Active | –
8 | COc1nccc(C)c1[C@H]1CC[C@H](c2cc3ccc(C)nc3n(Cc3ncccc3OC(F)(F)F)c2=O)CC1 [compound 261, 7-Methyl-3-[(1r,4r)-4-(2-methoxy-4-methyl-3-pyridyl)cyclohexyl]-1-[(3-trifluoromethoxy-2-pyridyl)methyl]-1,8-diaza-2(1H)-naphthalenone] | < 500 | Non-Active | –
9 | Cc1ccc2cc([C@H]3CC[C@H](c4c(C)cccc4F)CC3)c(=O)n(Cc3nccnc3OCC(F)F)c2n1 [compound 263, 1-{[3-(2,2-Difluoroethoxy)-2-pyrazinyl]methyl}-7-methyl-3-[(1r,4r)-4-(2-fluoro-6-tolyl)cyclohexyl]-1,8-diaza-2(1H)-naphthalenone] | < 500 | Non-Active | –

Second part, the compound after the results:

Row | IC50 [1] [nM] | [Agonist] B-arrestin2 recruitment: Average EC50 (nM) [2] | [Agonist] B-arrestin2 recruitment: Average EC50 (nM) ([2]; at 10 μM) | Structure (SMILES)
10 | < 500 | Non-Active | – | Cc1ccc2cc([C@H]3CC[C@H](c4c(C)cccc4F)CC3)c(=O)n(Cc3ncccc3C3CC3)c2n1 [compound 241, 1-((3-Cyclopropylpyridin-2-yl)methyl)-3-((1r,4r)-4-(2-fluoro-6-methylphenyl)cyclohexyl)-7-methyl-1,8-naphthyridin-2(1H)-one]
11 | < 500 | – | Non-Active at 10 μM | Cc1ccc2cc([C@H]3CC[C@H](c4c(F)cccc4F)CC3)c(=O)n(Cc3ncccc3C3CC3)c2n1 [compound 245, 1-((3-Cyclopropylpyridin-2-yl)methyl)-3-((1r,4r)-4-(2,6-difluorophenyl)cyclohexyl)-7-methyl-1,8-naphthyridin-2(1H)-one]
12 | < 500 | – | Non-Active at 10 μM | Cc1ccc2cc([C@H]3CC[C@H](c4c(F)cccc4F)CC3)c(=O)n(Cc3ncccc3OC(F)(F)F)c2n1 [compound 246, 3-((1r,4r)-4-(2,6-Difluorophenyl)cyclohexyl)-7-methyl-1-((3-(trifluoromethoxy)pyridin-2-yl)methyl)-1,8-naphthyridin-2(1H)-one]
13 | < 500 | – | Non-Active at 10 μM | Cc1cnc2cc([C@H]3CC[C@H](c4cnsc4C)CC3)c(=O)n(Cc3ncccc3C(F)(F)F)c2n1 [compound 249, 3-Methyl-7-((1r,4r)-4-(5-methylisothiazol-4-yl)cyclohexyl)-5-((3-(trifluoromethyl)pyridin-2-yl)methyl)pyrido[2,3-b]pyrazin-6(5H)-one]
14 | < 500 | – | Non-Active at 10 μM | Cc1cnc2cc([C@H]3CC[C@H](c4c(F)cccc4F)CC3)c(=O)n(Cc3ncccc3C(C)(F)F)c2n1 [compound 250, 5-((3-(1,1-Difluoroethyl)pyridin-2-yl)methyl)-7-((1r,4r)-4-(2,6-difluorophenyl)cyclohexyl)-3-methylpyrido[2,3-b]pyrazin-6(5H)-one]
15 | < 500 | Non-Active | – | Cc1cnc2cc([C@H]3CC[C@H](c4cnsc4C)CC3)c(=O)n(Cc3ncccc3OC(F)(F)F)c2n1 [compound 253, 3-Methyl-7-[(1r,4r)-4-(5-methyl-4-isothiazolyl)cyclohexyl]-5-[(3-trifluoromethoxy-2-pyridyl)methyl]-1,4,5-triaza-6(5H)-naphthalenone]
16 | < 500 | Non-Active | – | Cc1ccc2cc([C@H]3CC[C@H](c4cnccc4C(F)(F)F)CC3)c(=O)n(Cc3ncccc3C(C)(F)F)c2n1 [compound 254, 1-{[3-(1,1-Difluoroethyl)-2-pyridyl]methyl}-7-methyl-3-{(1r,4r)-4-[4-(trifluoromethyl)-3-pyridyl]cyclohexyl}-1,8-diaza-2(1H)-naphthalenone]
17 | < 500 | Non-Active | – | Cc1ccc2cc([C@H]3CC[C@H](c4c(C)ccnc4F)CC3)c(=O)n(Cc3ncccc3OC(F)(F)F)c2n1 [compound 255, 7-Methyl-3-[(1r,4r)-4-(2-fluoro-4-methyl-3-pyridyl)cyclohexyl]-1-[(3-trifluoromethoxy-2-pyridyl)methyl]-1,8-diaza-2(1H)-naphthalenone]
18 | < 500 | Non-Active | – | COc1nccc(C)c1[C@H]1CC[C@H](c2cc3ccc(C)nc3n(Cc3ncccc3C(C)(F)F)c2=O)CC1 [compound 256, 1-{[3-(1,1-Difluoroethyl)-2-pyridyl]methyl}-7-methyl-3-[(1r,4r)-4-(2-methoxy-4-methyl-3-pyridyl)cyclohexyl]-1,8-diaza-2(1H)-naphthalenone]
19 | < 500 | Non-Active | – | Cc1ccc2cc([C@H]3CC[C@H](c4c(C)cccc4F)CC3)c(=O)n(Cc3nccnc3C3CC3)c2n1 [compound 257, 1-[(3-Cyclopropyl-2-pyrazinyl)methyl]-7-methyl-3-[(1r,4r)-4-(2-fluoro-6-tolyl)cyclohexyl]-1,8-diaza-2(1H)-naphthalenone]
20 | < 500 | Non-Active | – | Cc1ccc2cc([C@H]3CC[C@H](c4c(C)ccnc4F)CC3)c(=O)n(Cc3ncccc3C(C)(F)F)c2n1 [compound 258, 1-((3-(1,1-difluoroethyl)pyridin-2-yl)methyl)-3-((1r,4r)-4-(2-fluoro-4-methylpyridin-3-yl)cyclohexyl)-7-methyl-1,8-naphthyridin-2(1H)-one]
21 | < 500 | Non-Active | – | Cc1ccc2cc([C@H]3CC[C@H](c4c(C)ccnc4F)CC3)c(=O)n(Cc3ncccc3CC(F)(F)F)c2n1 [compound 259, 7-Methyl-3-[(1r,4r)-4-(2-fluoro-4-methyl-3-pyridyl)cyclohexyl]-1-{[3-(2,2,2-trifluoroethyl)-2-pyridyl]methyl}-1,8-diaza-2(1H)-naphthalenone]
22 | < 500 | Non-Active | – | Cc1ccc2cc([C@H]3CC[C@H](c4c(C)ccnc4F)CC3)c(=O)n(Cc3ncccc3C(F)(F)F)c2n1 [compound 262, 7-Methyl-3-[(1r,4r)-4-(2-fluoro-4-methyl-3-pyridyl)cyclohexyl]-1-{[3-(trifluoromethyl)-2-pyridyl]methyl}-1,8-diaza-2(1H)-naphthalenone]
